Measurements reported in patent publication US6960592B2, “1,6-dihydro-7H-pyrazolo[4,3-d]pyrimidin-7-one compound for the treatment of impotence” (priority 2001, dated 2005).

How the values were obtained:
rats with testis removed = experiment: Penis erection test in rats with testis removed; type: in vivo
Description: Test 1. Penis erection test of the compound formula (I′) in rats with testis removed

mice with testis removed = experiment: Effect on the sexual function in mice with testis removed; type: in vivo
Description: Test 2. Effect of the compound of formula (I′) on the sexual function in mice with testis removed

[1] = Toxicity test, LD50 by Bliss method, oral gavage; conditions: mouse, in vivo, mice, orally by gavage, confidence limit of 95% 772.5-1052.1 mg/kg, read-out: half-lethal dosage (LD50)
Procedure: The confidence limit of 95% is 772.5-1052.1 mg/kg.

male mice = conditions: orally, single dose, from Chinese Journal of Clinical Pharmacology and Therapeutics 1999, 4(3), 237-240; cited from earlier work

Row | Structure (SMILES) | latent period of penis erection by electric irritation (10V) (rats with testis removed; dosage 12 mg/kg, P<0.01) | latent period of penis erection by electric irritation (10V) (rats with testis removed; dosage 24 mg/kg, P<0.05) | latent period which male mice catch female mice (mice with testis removed; dosage 12 mg/kg, P<0.01) | times of back-climbing on female mice by male mice (times of sexual intercourse) (mice with testis removed; dosage 12 mg/kg, P<0.01) | latent period which male mice catch female mice (mice with testis removed; dosage 24 mg/kg, P<0.05) | times of back-climbing on female mice by male mice (times of sexual intercourse) (mice with testis removed; dosage 24 mg/kg, P<0.05) | LD50 [1] [mg/kg] | latent period of penis erection by electric irritation (10V) (rats with testis removed; sildenafil comparator, dose not given, P<0.01) | LD50 (male mice) [mg/kg]
1 | CCCc1nn(C)c2c(=O)[nH]c(-c3cc(S(=O)(=O)N4C[C@@H](C)N[C@@H](C)C4)ccc3OCC)nc12 [compound of formula (I′), 5-[[2-ethoxy-5-(cis-2,6-dimethylpiperazin-4-ylsulphonyl)phenyl]]-1-methyl-3-n-propyl-7,6-dihydro-1H-pyrazolo[4,3-d]pyrimidin-7-one] | significantly shortened | significantly shortened | significantly shortened | significantly increased | significantly shortened | significantly increased | 902 | – | –
2 | CCCc1nn(C)c2c(=O)[nH]c(-c3cc(S(=O)(=O)N4CCN(C)CC4)ccc3OCC)nc12 [sildenafil, 1-[4-ethoxy-3-(6,7-dihydro-1-methyl-7-oxo-3-propyl-1H-pyrazolo[4,3-d]pyrimidin-5-yl)phenylsulphonyl]-4-methylpiperazine, reference compound] | – | – | – | – | – | – | – | significantly shortened | 625
